In ChEMBL document CHEMBL1134487, “Design, synthesis, and biological evaluation of analogues of the antitumor agent, 2-(4-[(7-chloro-2-quinoxalinyl)oxy]phenoxy)propionic acid (XK469)” (2001):

Tests used:
Mus musculus [1] = test: In vivo activity tested against C3H mice bearing colon adenocarcinoma -38(colon-38) tumor measured as % treated/control calculated at 1433 mg/kg (po); type: functional
Mus musculus [2] = test: In vivo activity tested against C3H mice bearing colon adenocarcinoma -38(colon-38) tumor measured as log Kill value was based on tumors that grew at 1433 mg/kg (po); type: functional, organism-based; set-up: dose 1433 mg/kg
Mus musculus [3] = test: In vivo activity tested against C3H mice bearing colon adenocarcinoma -38(colon-38) tumor measured as activity rating at 1433 mg/kg (po); type: functional
Mus musculus [4] = test: In vivo activity tested against C3H mice bearing colon adenocarcinoma -38(colon-38) tumor measured as body weight loss at 1433 mg/kg (po); type: functional
Mus musculus [5] = test: In vivo activity tested against C3H mice bearing mammary adenocarcinoma -16c/ADR tumor measured as % treated/control calculated at 164 mg/kg (po); type: functional
Mus musculus [6] = test: In vivo activity tested against C3H mice bearing mammary adenocarcinoma -16c/ADR tumor measured as body weight loss at 164 mg/kg (po); type: functional
Mus musculus [7] = test: In vivo activity tested against C3H mice bearing mammary adenocarcinoma -17/ADR tumor measured as body weight loss at 162 mg/kg (po); type: functional
Mus musculus [8] = test: In vivo activity tested against C3H mice bearing panc-03 murine tumor measured as body weight loss at 324 mg/kg (po); type: functional
Mus musculus [9] = test: In vivo activity tested against C3H mice bearing panc-03 murine tumor measured as log Kill value was based on tumors that grew at 324 mg/kg (po); type: functional, organism-based; set-up: dose 324 mg/kg
Mus musculus [10] = test: In vivo activity tested against C3H mice bearing mammary adenocarcinoma -17/ADR tumor measured as % treated/control calculated at 99 mg/kg (po); type: functional
Mus musculus [11] = test: In vivo activity tested against C3H mice bearing mammary adenocarcinoma -17/ADR tumor measured as body weight loss at 99 mg/kg (po); type: functional
Mus musculus [12] = test: In vivo activity tested against C3H mice bearing panc-03 murine tumor measured as % treated/control calculated at 324 mg/kg (po); type: functional
Mus musculus [13] = test: In vivo activity tested against C3H mice bearing panc-03 murine tumor measured as body weight loss at 180 mg/kg (po); type: functional
Mus musculus [14] = test: In vivo activity tested against C3H mice bearing mammary adenocarcinoma -17/ADR tumor measured as log Kill value was based on tumors that grew at 162 mg/kg (po); type: functional, organism-based; set-up: dose 162 mg/kg
Mus musculus [15] = test: In vivo activity tested against C3H mice bearing panc-03 murine tumor measured as log Kill value was based on tumors that grew at 180 mg/kg (po); type: functional, organism-based; set-up: dose 180 mg/kg
Mus musculus [16] = test: In vivo activity tested against C3H mice bearing panc-03 murine tumor measured as % treated/control calculated at 180 mg/kg (po); type: functional
Mus musculus [17] = test: In vivo activity tested against C3H mice bearing mammary adenocarcinoma -16c/ADR tumor measured as log Kill value was based on tumors that grew at 164 mg/kg (po); type: functional, organism-based; set-up: dose 164 mg/kg
Mus musculus [18] = test: In vivo activity tested against C3H mice bearing mammary adenocarcinoma -17/ADR tumor measured as % treated/control calculated at 162 mg/kg (po); type: functional
Mus musculus [19] = test: In vivo activity tested against C3H mice bearing mammary adenocarcinoma -17/ADR tumor measured as log Kill value was based on tumors that grew at 99 mg/kg (po); type: functional, organism-based; set-up: dose 99 mg/kg
Mus musculus [20] = test: In vivo activity tested against C3H mice bearing mammary adenocarcinoma -17/ADR tumor measured as body weight loss at 216 mg/kg (po); type: functional
Mus musculus [21] = test: In vivo activity tested against C3H mice bearing panc-03 murine tumor measured as log Kill value was based on tumors that grew at 144 mg/kg (po); type: functional, organism-based; set-up: dose 144 mg/kg
Mus musculus [22] = test: In vivo activity tested against C3H mice bearing panc-03 murine tumor measured as body weight loss at 144 mg/kg (po); type: functional
Mus musculus [23] = test: In vivo activity tested against C3H mice bearing mammary adenocarcinoma -17/ADR tumor measured as log Kill value was based on tumors that grew at 216 mg/kg (po); type: functional, organism-based; set-up: dose 216 mg/kg
Mus musculus [24] = test: In vivo activity tested against C3H mice bearing panc-03 murine tumor measured as % treated/control calculated at 144 mg/kg (po); type: functional
Mus musculus [25] = test: In vivo activity tested against C3H mice bearing mammary adenocarcinoma -17/ADR tumor measured as % treated/control calculated at 216 mg/kg (po); type: functional

COC(=O)C(C)Oc1ccc(Oc2cnc3ccc(F)cc3n2)cc1 (stereo not given)
T/C (Mus musculus [1]): 34% | Log kill (Mus musculus [2]): 0.8 | Activity rating (Mus musculus [3]): 1.2 | Body weight loss (Mus musculus [4]): 1%

COc1c(Cl)ccc2ncc(Oc3ccc(OC(C)C(=O)O)cc3)nc12 (stereo not given)
T/C (Mus musculus [5]): 7.5% | Body weight loss (Mus musculus [6]): -6.2% | Body weight loss (Mus musculus [7]): -16.4% | Body weight loss (Mus musculus [8]): -15% | Log kill (Mus musculus [9]): 3 | T/C (Mus musculus [10]): 13% | Body weight loss (Mus musculus [11]): -1.5% | T/C (Mus musculus [12]): 0% | Body weight loss (Mus musculus [13]): 5% | Log kill (Mus musculus [14]): 1.5 | Log kill (Mus musculus [15]): 0.64 | T/C (Mus musculus [16]): 33% | Log kill (Mus musculus [17]): 1.7 | T/C (Mus musculus [18]): 7% | Log kill (Mus musculus [19]): 1.2

CC(Oc1ccc(Oc2cnc3ccc(N=[N+]=[N-])cc3n2)cc1)C(=O)O (stereo not given)
Body weight loss (Mus musculus [20]): 4.3% | Log kill (Mus musculus [21]): 2 | Body weight loss (Mus musculus [22]): 2.9% | Log kill (Mus musculus [23]): 1 | T/C (Mus musculus [24]): 17% | T/C (Mus musculus [25]): 30%
